pKd: −log10 of the molar value.
Assays:
[1] = Cytotoxicity against human KHYG-1 cells assessed as cell viability at 1 uM measured after 24 hrs by trypan blue staining based analysis relative to control; assay type: toxicity; details: read-out: Activity
[2] = target: T1, Perforin-1 (Homo sapiens) (UniProt P14222); assay: Inhibition of perforin-dependent cell killing activity of human KHYG-1 cells assessed as reduction in cytotoxicity against K562 cells preincubated for 20 mins followed by 51Cr labelled K562 cells addition and measured after 4 hrs by gamma counter analysis; assay type: cell-based; details: time 260.0 min
T1 sequence (whole entry): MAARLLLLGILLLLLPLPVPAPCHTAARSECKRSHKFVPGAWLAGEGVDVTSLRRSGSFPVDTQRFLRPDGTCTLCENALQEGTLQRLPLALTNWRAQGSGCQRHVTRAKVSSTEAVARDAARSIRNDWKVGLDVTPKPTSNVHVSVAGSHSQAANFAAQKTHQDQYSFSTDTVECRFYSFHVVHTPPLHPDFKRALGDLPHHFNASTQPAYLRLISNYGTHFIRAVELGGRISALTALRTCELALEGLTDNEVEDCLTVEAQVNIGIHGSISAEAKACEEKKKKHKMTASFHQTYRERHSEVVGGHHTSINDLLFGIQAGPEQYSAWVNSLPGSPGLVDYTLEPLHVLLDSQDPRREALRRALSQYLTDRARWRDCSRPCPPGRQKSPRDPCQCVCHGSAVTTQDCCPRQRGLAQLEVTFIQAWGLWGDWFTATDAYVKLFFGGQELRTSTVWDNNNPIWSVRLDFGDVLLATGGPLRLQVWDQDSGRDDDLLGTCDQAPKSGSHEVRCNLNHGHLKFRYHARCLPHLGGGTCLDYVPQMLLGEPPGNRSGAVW

[3] = Cytotoxicity against human KHYG-1 cells assessed as cell viability at 0.38 uM measured after 24 hrs by trypan blue staining based analysis relative to control; assay type: toxicity; details: read-out: Activity
HepG2 = assay: Cytotoxicity against human HepG2 cells assessed as reduction in cell viability at 0.001 to 100 uM incubated for 5 days by SRB assay; assay type: toxicity, cell-based; details: hepg2, 120 h, dose 0.001-100 µM, time 5 day
[4] = target: T1, Perforin-1 (Homo sapiens); assay: Inhibition of perforin-dependent cell killing activity of human KHYG-1 cells assessed as reduction in cytotoxicity against K562 cells at 100 uM preincubated for 20 mins followed by 51Cr labelled K562 cells addition and measured after 4 hrs by gamma counter analysis relative to control; assay type: cell-based; details: time 260.0 min
Perforin-1 [5] = target: T2, Perforin-1 (Mus musculus, UniProt P10820); assay: Binding affinity to lipid-coated L1 chip immobilised recombinant mouse perforin expressed in baculovirus-infected Sf21 cells by SPR analysis
T2 sequence (P10820 whole entry): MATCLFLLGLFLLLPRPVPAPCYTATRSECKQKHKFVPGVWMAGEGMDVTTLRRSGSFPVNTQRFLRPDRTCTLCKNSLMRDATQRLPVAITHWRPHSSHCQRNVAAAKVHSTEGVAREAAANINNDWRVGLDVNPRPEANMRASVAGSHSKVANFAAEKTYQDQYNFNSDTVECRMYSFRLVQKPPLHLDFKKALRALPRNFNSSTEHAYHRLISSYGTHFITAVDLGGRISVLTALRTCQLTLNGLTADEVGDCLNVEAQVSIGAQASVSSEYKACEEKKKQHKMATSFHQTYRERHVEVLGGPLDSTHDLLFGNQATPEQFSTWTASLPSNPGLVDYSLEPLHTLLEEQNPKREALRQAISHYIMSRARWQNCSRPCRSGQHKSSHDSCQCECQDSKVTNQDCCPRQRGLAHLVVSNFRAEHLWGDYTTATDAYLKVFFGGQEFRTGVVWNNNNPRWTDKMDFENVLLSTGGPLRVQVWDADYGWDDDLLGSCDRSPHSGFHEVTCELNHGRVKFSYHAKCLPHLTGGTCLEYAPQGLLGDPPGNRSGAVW

Perforin-1 [6] = target: T2, Perforin-1; assay: Binding affinity to CM5 chip immobilised recombinant mouse perforin expressed in baculovirus-infected Sf21 cells by SPR analysis
[7] = Cytotoxicity against human KHYG-1 cells assessed as cell viability at 0.24 uM measured after 24 hrs by trypan blue staining based analysis relative to control; assay type: toxicity; details: read-out: Activity
[8] = target: T3, Perforin-1 (Mus musculus) (UniProt P10820); assay: Binding affinity to recombinant mouse perforin expressed in baculovirus-infected Sf21 cells assessed as change in chemical shift by 19F NMR assay
T3 sequence (whole entry): T2 sequence (P10820 whole entry)

Question: Which viability at 24 h, 1 µM [1] does the source give for `Cc1cc(NS(=O)(=O)c2ccc(C)c(-c3cnc(N)nc3)c2)ccc1N` here?
Answer: The viability at 24 h, 1 µM was > 85%.

Question: And the IC90 [2]?
Answer: The IC90 was 2290 nM.

Question: With `Cc1cc2c(cc1-c1cnc(N)nc1)S(=O)(=O)c1ccc(C(N)=O)cc1CC2C` (stereo not drawn) as the molecule, how does the viability at 24 h, 1 µM [1] read?
Answer: Its viability at 24 h, 1 µM is 76%.

Question: What about the IC90 [2] of the same molecule?
Answer: The IC90 was 40 nM.

Question: For `Cc1ccc(S(=O)(=O)c2ccc3c(c2)CCN3)cc1-c1cnc2n[nH]cc2c1`, which viability at 24 h, 1 µM [1] is on record?
Answer: The viability at 24 h, 1 µM was 56%.

Question: What about the viability at 24 h, 0.38 µM [3] of the same molecule?
Answer: Its viability at 24 h, 0.38 µM is 97%.

Question: And the IC90 [2]?
Answer: The IC90 was 40 nM.

Question: With `Cc1ccc(S(=O)(=O)c2ccc3[nH]ccc3c2)cc1-c1cnc(N)nc1` as the molecule, how does the viability at 24 h, 1 µM [1] read?
Answer: The viability at 24 h, 1 µM was > 85%.

Question: And the IC90 [2]?
Answer: Its IC90 is 496 nM.

Question: What does the source list for `Nc1ccc(S(=O)(=O)c2ccc(N)cc2)cc1` [DAPSONE]?
Answer: Activity (HepG2): Non-Toxic; IC90 [2]: > 100000 nM; inhibition [4]: 65%

Question: Which viability at 24 h, 1 µM [1] does the source give for `Cc1ccc(NS(=O)(=O)c2ccc3c(c2)CCN3)cc1-c1cnc(N)nc1` here?
Answer: The viability at 24 h, 1 µM was > 85%.

Question: And the IC90 [2]?
Answer: Its IC90 is 33 nM.

Question: Which IC90 [2] does the source give for `Cc1ccc(S(=O)(=O)c2ccc(N)cc2)cc1-c1cnc(N)nc1` here?
Answer: Its IC90 is 3400 nM.

Question: For `Cc1ccc(S(=O)(=O)c2ccc3c(c2)CCN3C)cc1-c1cnc(N)nc1`, which viability at 24 h, 1 µM [1] is on record?
Answer: Its viability at 24 h, 1 µM is > 85%.

Question: What about the IC90 [2] of the same molecule?
Answer: The IC90 was 406 nM.

Question: For `Cc1ccc(S(=O)(=O)c2ccc3c(c2)CCN3)cc1-c1cnc(N)nc1`, which viability at 24 h, 1 µM [1] is on record?
Answer: Its viability at 24 h, 1 µM is > 85%.

Question: What about the pKd (Perforin-1 [5]) of the same molecule?
Answer: Its pKd is ~6.70.

Question: What about the Activity (HepG2) of the same molecule?
Answer: The Activity was “Non-Toxic”.

Question: And the pKd (Perforin-1 [6])?
Answer: Its pKd is 4.07.

Question: And the IC90 [2]?
Answer: The IC90 was 30 nM.

Question: Which viability at 24 h, 0.24 µM [7] does the source give for `Cc1cc(C(N)=O)cc(S(=O)(=O)c2ccc(C)c(-c3cnc(N)nc3)c2)c1` here?
Answer: The viability at 24 h, 0.24 µM was 64%.

Question: And the IC90 [2]?
Answer: The IC90 was 29 nM.

Question: With `Cc1ccc(S(=O)(=O)c2ccc(N)cc2)cc1-c1cccnc1` as the molecule, how does the IC90 [2] read?
Answer: Its IC90 is 43000 nM.

Question: For `CNC(=O)Nc1ccc(-c2cc(S(=O)(=O)c3ccc4c(c3)CCN4)ccc2C)cc1`, which viability at 24 h, 1 µM [1] is on record?
Answer: The viability at 24 h, 1 µM was > 85%.

Question: And the IC90 [2]?
Answer: Its IC90 is 4460 nM.

Question: With `Cc1cc(C(=O)Nc2ccc(C)c(-c3cnc(N)nc3)c2)ccc1N` as the molecule, how does the viability at 24 h, 1 µM [1] read?
Answer: Its viability at 24 h, 1 µM is > 85%.

Question: What about the IC90 [2] of the same molecule?
Answer: The IC90 was > 30000 nM.

Question: Which viability at 24 h, 1 µM [1] does the source give for `Cc1cc(S(=O)(=O)c2ccc(C)c(-c3cnc(N)nc3)c2)ccc1N` here?
Answer: The viability at 24 h, 1 µM was > 85%.

Question: What about the pKd (Perforin-1 [5]) of the same molecule?
Answer: Its pKd is ~6.70.

Question: What about the pKd (Perforin-1 [6]) of the same molecule?
Answer: The pKd was 3.96.

Question: What about the IC90 [2] of the same molecule?
Answer: Its IC90 is 169 nM.

Question: Which viability at 24 h, 1 µM [1] does the source give for `Cc1cc(NC(=O)c2ccc(C)c(-c3cnc(N)nc3)c2)ccc1N` here?
Answer: Its viability at 24 h, 1 µM is > 85%.

Question: And the IC90 [2]?
Answer: Its IC90 is > 30000 nM.

Question: For `Cc1cc(S(=O)(=O)c2ccc3c(c2)CCN3)ccc1-c1cnc(N)nc1`, which viability at 24 h, 1 µM [1] is on record?
Answer: Its viability at 24 h, 1 µM is > 85%.

Question: What about the IC90 [2] of the same molecule?
Answer: Its IC90 is > 3000 nM.

Question: With `Cc1cc(S(=O)(=O)c2ccc(C)c(-c3cnc(N)nc3)c2)c(C(F)(F)F)cc1N` as the molecule, how does the Activity [8] read?
Answer: Its Activity is 7.6 Hz.

Question: What about the IC90 [2] of the same molecule?
Answer: The IC90 was 203 nM.

Question: Which results are given for `CCNc1ccc(S(=O)(=O)c2ccc(C)c(-c3cnc(N)nc3)c2)c(C(F)(F)F)c1`?
Answer: Activity [8]: 14.5 Hz; IC90 [2]: 31 nM

Question: What does the source list for `Nc1ccc(S(=O)(=O)c2cccc(-c3cnc(N)nc3)c2)c(C(F)(F)F)c1`?
Answer: Activity [8]: 8.5 Hz; IC90 [2]: 131 nM

Question: With `Cc1ccc(S(=O)(=O)c2ccc3[nH]ncc3c2)cc1-c1cnc(N)nc1` as the molecule, how does the viability at 24 h, 1 µM [1] read?
Answer: The viability at 24 h, 1 µM was > 85%.

Question: What about the IC90 [2] of the same molecule?
Answer: Its IC90 is 281 nM.

Question: For `Cc1cc(S(=O)(=O)Nc2ccc(C)c(-c3cnc(N)nc3)c2)ccc1N`, which viability at 24 h, 1 µM [1] is on record?
Answer: The viability at 24 h, 1 µM was > 85%.

Question: What about the IC90 [2] of the same molecule?
Answer: Its IC90 is 70 nM.

Question: For `Cc1cc(S(=O)(=O)c2ccc(C)c(-c3cnc(N)nc3)c2)ccc1C(N)=O`, which viability at 24 h, 1 µM [1] is on record?
Answer: The viability at 24 h, 1 µM was > 85%.

Question: What about the IC90 [2] of the same molecule?
Answer: The IC90 was 155 nM.

Question: For `Cc1ccc(S(=O)(=O)c2ccc(N)cc2C(F)(F)F)cc1-c1cnc(N)nc1`, which Activity [8] is on record?
Answer: The Activity was 13.2 Hz.

Question: What about the IC90 [2] of the same molecule?
Answer: The IC90 was 21 nM.

Question: With `Cc1ccc(S(=O)(=O)c2ccc3c(c2)CCN3)cc1-c1ccc2n[nH]cc2c1` as the molecule, how does the viability at 24 h, 1 µM [1] read?
Answer: Its viability at 24 h, 1 µM is > 85%.

Question: What about the IC90 [2] of the same molecule?
Answer: Its IC90 is 1040 nM.

Question: What does the source list for `Cc1ccc(S(=O)(=O)c2ccc3c(c2)CCNC3=O)cc1-c1cnc(N)nc1`?
Answer: viability at 24 h, 1 µM [1]: > 85%; IC90 [2]: 40 nM

Question: Which results are given for `Cc1ccc(S(=O)(=O)c2ccc3c(c2)CNC3=O)cc1-c1cnc(N)nc1`?
Answer: viability at 24 h, 1 µM [1]: > 85%; IC90 [2]: 199 nM

Question: Which viability at 24 h, 1 µM [1] does the source give for `Cc1ccc(S(=O)(=O)c2ccc3c(c2)CCN3)cc1-c1ccc(N)nc1` here?
Answer: The viability at 24 h, 1 µM was > 85%.

Question: And the IC90 [2]?
Answer: Its IC90 is 361 nM.

Question: Which results are given for `Cc1ccc(NS(=O)(=O)c2ccc(N)cc2C(F)(F)F)cc1-c1cnc(N)nc1`?
Answer: Activity [8]: 5.5 Hz; IC90 [2]: 1900 nM

Question: With `Cc1ccc(S(=O)(=O)c2ccc3c(c2)CCO3)cc1-c1cnc(N)nc1` as the molecule, how does the viability at 24 h, 1 µM [1] read?
Answer: Its viability at 24 h, 1 µM is > 85%.

Question: And the IC90 [2]?
Answer: Its IC90 is 160 nM.
